According to patent US20060276393A1, “Novel compositions for preventing and treating neurodegenerative and blood coagulation disorders” (Sirtris Pharmaceuticals, Inc., priority 2005, published 2006):
Several values for one entry are separate records, joined by “and”; a condition that tells them apart may be missing. Equal entries are not always repeated. Entries after “also recorded” stand apart in the source; their conditions may differ.

How the values were obtained:
recombinant human SIRT1 = molecular target: T1, recombinant human SIRT1 (Homo sapiens, UniProt Q96EB6); test: SIRT1 fluorescent deacetylation assay (p53-382 acetylated peptide); format: biochemical; conditions: for SIRT1 stimulating activity (in words): 25 μM NAD+, 25 μM p53-382 acetylated peptide, compounds at 100 μM
T1 sequence (Q96EB6 1-747): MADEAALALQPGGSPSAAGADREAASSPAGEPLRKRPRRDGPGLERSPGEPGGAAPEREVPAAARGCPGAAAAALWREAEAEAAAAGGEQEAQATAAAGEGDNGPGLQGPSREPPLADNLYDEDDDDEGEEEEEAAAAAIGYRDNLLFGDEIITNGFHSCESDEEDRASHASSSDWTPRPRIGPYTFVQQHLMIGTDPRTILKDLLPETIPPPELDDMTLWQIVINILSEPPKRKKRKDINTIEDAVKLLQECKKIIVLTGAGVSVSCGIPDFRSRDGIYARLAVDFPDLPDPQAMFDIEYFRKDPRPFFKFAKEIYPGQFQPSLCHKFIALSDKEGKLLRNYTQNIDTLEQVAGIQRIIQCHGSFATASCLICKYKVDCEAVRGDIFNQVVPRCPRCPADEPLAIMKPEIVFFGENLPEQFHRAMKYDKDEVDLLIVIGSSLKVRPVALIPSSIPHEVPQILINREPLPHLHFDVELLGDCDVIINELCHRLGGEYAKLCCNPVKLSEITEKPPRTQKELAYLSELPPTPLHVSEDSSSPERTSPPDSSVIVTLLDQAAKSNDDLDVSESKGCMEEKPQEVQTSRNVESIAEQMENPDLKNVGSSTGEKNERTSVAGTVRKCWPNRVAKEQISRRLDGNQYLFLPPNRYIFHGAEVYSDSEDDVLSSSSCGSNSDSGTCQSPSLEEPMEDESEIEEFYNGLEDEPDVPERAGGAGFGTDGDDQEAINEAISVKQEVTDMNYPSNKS
Excerpt: Lines represent non-linear least-squares fits to the Michaelis-Menten equation. […] Lines represent non-linear least-squares fits to the Michaelis-Menten equation. […] Error bars are standard errors of the mean.
To identify compounds that modulate SIRT1 activity, a number of small molecule libraries were screened using a fluorescent deacetylation assay in 96-well plates^26. The substrate used in the assay was a fluorogenic peptide based on the sequence encompassing the p53-K382 acetylation site, a known target of SIRT1 in vivo^20,21,27. […] The small molecule libraries included analogues of nicotinamide, ε-acetyl lysine, NAD^+, nucleotides, nucleotide analogues and purinergic ligands.
His6-tagged recombinant SIRT1 and GST-tagged recombinant Sir2 were prepared as previously described^26. From 0.1 to 1 μg of SIRT1 and 1.5 μg of Sir2 were used per deacetylation assay (in 50 μl total reaction) as previously described^26.
Themed compound libraries (BIOMOL) were used for primary and secondary screening. Most polyphenol compounds were dissolved at 10 mM in dimethylsulfoxide (DMSO) on the day of the assay. For water soluble compounds and negative controls, 1% v/v DMSO was added to the assay. […] Unless otherwise indicated all initial rate measurements were means of three or more replicates, obtained with single incubation times, at which point 5% or less of the substrate initially present had been deacetylated. Calculation of net fluorescence increases included subtraction of a blank value, which in the case of Sir2 was obtained by omitting the enzyme from the reaction and in the case of SIRT1 by adding an inhibitor (200 μM suramin or 1 mM nicotinamide) to the reaction prior to the acetylated substrate. […] All error bars represent the standard error of the mean.

S. cerevisiae = test: Yeast replicative lifespan; format: cell-based; conditions: for % change in yeast replicative lifespan relative to untreated organisms (10 μM): 2% (w/v) glucose YPD, untreated 100%; for Average lifespan: 10 μM compound, 2% glucose medium, wild type untreated 22.9
Description: Average lifespan for wild type, 22.9 generations, quercetin, 23.4; piceatannol. […]
All yeast strains were grown at 30° C. in complete yeast extract/bactopeptone, 2.0% (w/v) glucose (YPD) medium except where stated otherwise. Calorie restriction was induced in 0.5% glucose. Synthetic complete (SC) medium consisted of 1.67% yeast nitrogen base, 2% glucose, 40 mg/litre each of auxotrophic markers. SIR2 was integrated in extra copy and disrupted as described^5. Other strains are described elsewhere^26. For cellular deacetylation assays, HeLa S3 cells were used. U20S osteosarcoma and human embryonic kidney (HEK 293) cells were cultured adherently in Dulbecco's Modified Eagle's Medium (DMEM) containing 10% fetal calf serum (FCS) with 1.0% glutamine and 1.0% penecillin/streptomycin. HEK 293 overexpressing dominant negative SIRT1 H363Y was a gift of R. Frye (U. Pittsburgh).
Lifespan measurements were performed using PSY316AT MATα as previously described^35. All compounds for lifespan analyses were dissolved in 95% ethanol and plates were dried and used within 24 hours. Prior to lifespan analysis, cells were pre-incubated on their respective media for at least 15 hours. Following transfer to a new plate, cells were equilibrated on the medium for a minimum of 4 hours prior to micro-manipulating them. At least 30 cells were examined per experiment and each experiment was performed at least twice. Statistical significance of lifespan differences was determined using the Wilcoxon rank sum test. Differences are stated to be significant when the confidence is higher than 95%.

Human 293 = test: Survival of 293 cells; conditions: 50 micromolar
Description: The number of live cells each time point was counted using a Coulter counter.

HDAC = conditions: in vitro or in vivo, literature; cited from earlier work
[1] = molecular target: T2, SIRT1 deacetylase (BIOMOL) (Homo sapiens, UniProt Q96EB6); test: High-throughput SIRT1 screening protocol (ICCB library); format: biochemical; conditions: positive controls; 200 μM NAD+, 5 μM Fluor de Lys-SIRT1; resveratrol 50 μM
T2 construct: purchased BIOMOL
T2 sequence (Q96EB6 1-747): T1 sequence (Q96EB6 1-747)
Description: The reaction mixture contains (final): 0.5 units/reaction SIRT1 deacetylase (BIOMOL); 200 μM NAD^+; 5 μM Fluor de Lys-SIRT1 substrate (BIOMOL); buffer (25 mM Tris/Cl, pH 8.0, 137 mM NaCl, 2.7 mM KCl, 1 mM MgCl2, and 1 mg/ml BSA). In addition, a reaction mixture containing no enzyme was made so that each well receiving compound has a corresponding “no enzyme control” well. Reactions were performed in black 384 well plates (NUNC) in a final volume of 25 μl/well.
The reactions were started by combining enzyme and substrate in a reaction mixture immediately prior to aliquoting in plates (or substrate only for “no enzyme control” plates). Mixture were aliquoted to plates using Biotek μfill (Biotek Instruments). Control mixtures were manually added to designated wells. A library compound was added at a desired concentration by pin transfer to both “with enzyme” and “no enzyme” plates. Compounds were added in at least triplicate (with enzyme reaction in duplicate and no enzyme controls) at a final concentration of roughly 50 μM. The plates were incubated at 37° C for 30-60 minutes. Then 25 μl of 1× Developer II (BIOMOL) plus 2 mM nicotinamide were added to all wells to stop the reactions. The reactions were left for at least 30 minutes at 37° C. for the signal to develop. The plates were read in a microplate-reading fluorometer capable of excitation at a wavelength in the range of 350-380 nm and detection of emitted light in the range of 440-460 nm. A read time of 0.1 sec per well was used.

D. melanogaster = D. melanogaster lifespan; format: in vivo
Description: Females (a) and males (b) with loss-of-function genotype dSir2^4.5/dSir2^5.26. Females (c) and males (d) with strong hypomorphic genotype dSir2^17/dSir2^KG00871.
Survival assays were conducted independently with adult D. melanogaster in two laboratories. In the first laboratory, all trials used an yw marked wild-type strain. Larvae were reared on standard cornmeal-sugar-yeast (CSY) agar diet (cornmeal 5%, sucrose 10.5%, SAF yeast 2%, and agar 0.7%). Newly eclosed adults were placed in 1 L demography cages with approximately 75 males and 75 females. Three to four replicate 1 L demography cages were used for each treatment group in each trial. Every two days, dead flies were removed and scored, and food vials were replenished. Food vials contained cornmeal-sugar-yeast diet with SAF yeast as either 2% or 3% by weight. Test compounds in 100 μl of EtOH (or blank EtOH in controls) were mixed into melted aliquots of the adult food media to make a final concentration of 0, 10 or 100 μM. Fresh stock solutions and adult media were prepared weekly. In the second laboratory, lifespan trials were conducted with the wild type strain Canton-S, dSir2^4.5 and dSir2^5.26 (S. Smolik, University of Oregon), dSir2^17 (S. Astrom, Stockholm University, Sweden), and dSir2^KG00871 (Drosophila Stock Center, Bloomington, Ind.). Larvae for all tests were reared on standard cornmeal-sugar-yeast diet. Newly eclosed adults were incubated in plastic shell vials containing 5 ml of 15% sugar-yeast diet (15% SY) or 5% sugar-yeast (5% SY) diet (15% SY: 15% yeast, 15% sucrose, 2% agar; 5% SY: 5% yeast, 5% sucrose, 2% agar as per Ref. ^20). In all trials, ˜20 males with ˜20 females were placed into each of 10 vials/treatment group. Every two days, flies were passed into new vials and dead flies were counted. […] Final compound concentrations were 0, 10, 100 or 200 μM. Fresh stock solution and adult media was prepared weekly.

5,7,4′-Trihydroxyflavanone [genistein]
SIRT1 stimulating activity (in words) (recombinant human SIRT1): absence of activity

Oc1cc(O)cc(/C=C/c2ccc(F)cc2)c1 [BML-212, 3,5-Dihydroxy-4′-fluoro-trans-stilbene]
% change in yeast replicative lifespan relative to untreated organisms (10 μM) (S. cerevisiae; 10 μM): 98%

Oc1cc(O)cc(/C=C/c2ccc(Cl)cc2)c1 [BML-217, 3,5-Dihydroxy-4′-chloro-trans-stilbene]
% change in yeast replicative lifespan relative to untreated organisms (10 μM) (S. cerevisiae; 10 μM): 90% | SIRT1 stimulating activity (in words) (recombinant human SIRT1): did the least to decrease activity; also recorded: did not significantly diminish the SIRT1 activating effect

O=C(Nc1cc(O)cc(O)c1)c1ccccc1 [BML-219, N-(3,5-Dihydroxyphenyl)benzamide]
SIRT1 stimulating activity (in words) (recombinant human SIRT1): abolished activity

Oc1cc(O)cc(/C=C/C2CCCCC2)c1 [BML-224]
SIRT1 stimulating activity (in words) (recombinant human SIRT1): nearly as detrimental to SIRT1 stimulating activity

CCc1ccc(/C=C/c2cc(O)cc(O)c2)cc1 [BML-225]
Survival of 293 cells (Human 293; 0 h): 100% | Survival of 293 cells (Human 293; 48 h): 5% | Survival of 293 cells (Human 293; 96 h): 8%

Cc1ccc(/C=C/c2cc(O)cc(O)c2)cc1 [BML-228]
SIRT1 stimulating activity (in words) (recombinant human SIRT1): did the least to decrease activity | Survival of 293 cells (Human 293; 0 h): 100% | Survival of 293 cells (Human 293; 48 h): 46% | Survival of 293 cells (Human 293; 96 h): 32%

CSc1ccc(/C=C/c2cc(O)cc(O)c2)cc1 [BML-230]
v1/v2, ratio of BML-230-stimulated to resveratrol-stimulated SIRT1 rate (recombinant human SIRT1; R at 500 μM): ≤ 1.4 | BML-230-stimulated SIRT1 activity compared with resveratrol (recombinant human SIRT1; dose response, 25 μM each NAD+ and p53-382 peptide, 20 min): exceeds that stimulated by resveratrol at all concentrations tested | dissociation constant of SIRT1/activator complex (comparison) (recombinant human SIRT1; inferred from two state model, FIG. 9b): lower dissociation constant than SIRT1/resveratrol | Survival of 293 cells (Human 293; 0 h): 100% | Survival of 293 cells (Human 293; 48 h): 55% | Survival of 293 cells (Human 293; 96 h): 57% | toxicity on 293 cells (in words) (Human 293; 96 hours): least toxic on 293 cells

O=C(/C=C/c1cccc(C(=O)NO)c1)NO [CBHA, m-carboxy-cinnamic acid bishydroxamic acid]
HDAC inhibition (in words) (HDAC): micromolar concentration or lower

C/C=C1\NC(=O)[C@H]2CSSCC/C=C/[C@H](CC(=O)N[C@H](C(C)C)C(=O)N2)OC(=O)[C@H](C(C)C)NC1=O [Depsipeptide]
HDAC inhibition (in words) (HDAC): micromolar concentrations

NC(=O)c1cccnc1 [Nicotinamide, nicotinamide]
SIRT1 Vmax decrease (recombinant human SIRT1; 50 μM nicotinamide, absence of resveratrol, NAD+ or acetylated peptide varied): 30% and 36%

Oc1cc(O)cc(/C=C/c2ccccc2)c1 [Pinosylvin, 3,5-Dihydroxy-trans-stilbene]
activated SIRT1 [1]: 3.28 fold | % change in yeast replicative lifespan relative to untreated organisms (10 μM) (S. cerevisiae; 10 μM): 114% | SIRT1 stimulating activity (in words) (recombinant human SIRT1): did the least to decrease activity | SIRT1 stimulating activity (in words) (recombinant human SIRT1; listed as pinosylvin): did not significantly diminish the SIRT1 activating effect

O=c1c(O)c(-c2ccc(O)c(O)c2)oc2cc(O)ccc12 [fisetin, 3,7,3′,4′-Tetrahyddroxyflavone]
increase of average lifespan (S. cerevisiae; 10 μM): 55% | maximum lifespan (in words) (S. cerevisiae; 10 μM): significantly increased maximum lifespan | Average lifespan (S. cerevisiae): 30.0 generations | longevity on restricted diet (D. melanogaster; restricted diet): neither resveratrol nor fisetin further increased longevity | lifespan extended (maximum) (D. melanogaster; wild type Canton-S and yw, males and females, normal diet): up to 23%

Oc1cc(O)cc(/C=C/c2ccc(O)c(O)c2)c1 [piceatannol, 3,5,3′,4′-Tetrahydroxy-trans-stilbene]
effect on lifespan (in words) (S. cerevisiae; 10 μM): no significant effect on lifespan | Average lifespan (S. cerevisiae): 24.0 generations | stimulated SIRT1 activity (recombinant human SIRT1; initial library screen, fluorogenic p53-K382 peptide (Table 1)): eight

O=c1c(O)c(-c2ccc(O)c(O)c2)oc2cc(O)cc(O)c12 [quercetin, 3,5,7,3′,4′-Pentahydroxyflavone]
effect on lifespan (in words) (S. cerevisiae; 10 μM): no significant effect on lifespan | Average lifespan (S. cerevisiae): 23.4 generations

depudecin
HDAC inhibition (in words) (HDAC): micromolar concentrations

trichostatin A [TSA]
HDAC inhibition (in words) (HDAC): potent inhibitor of mammalian HDAC
